Test results: patent publication US5440014A, “Fibronectin binding peptide” (priority 1990, dated 1995)

How the values were obtained:
spirochetes = settings: cited from earlier work
Treponema palladium = settings: Thomas et al., 1985b; cited from earlier work
Trypanosoma cruzi = settings: Ouaissi et al., 1986; cited from earlier work
Human fibronectin = Human fibronectin (human, UniProt P02751, ^125 I-labeled (chloramine T iodination)); assay: synthetic peptide; inhibition of 125I-HFN binding to S. aureus 8325-4 cells

Molecule | attachment of spirochetes to cultured human cells (spirochetes) | prevention of fibronectin binding to Treponema palladium (Treponema palladium) | prevention of fibronectin binding to Trypanosoma cruzi (Trypanosoma cruzi) | binding result (Human fibronectin)
RGDS | blocked the attachment | Binding was also prevented | Binding was also prevented | –
QFGGHNSVDFEEDT [Peptide S20-33] | – | – | – | no binding
